From ChEMBL document CHEMBL1146777, “Interaction with the S1 beta-pocket of urokinase: 8-heterocycle substituted and 6,8-disubstituted 2-naphthamidine urokinase inhibitors” (Bioorg Med Chem Lett, 2004) come the findings set out here.

In general, pKi refers to the negative decadic logarithm of the Ki, by convention in mol/L.

The target in experiment [1] is Urokinase-type plasminogen activator (Homo sapiens, UniProt P00749).
Description: Binding affinity towards Urokinase-type plasminogen activator (urokinase)
Another experiment has as its target Plasminogen (Homo sapiens, UniProt P00747). The experiment in a line: Binding affinity against plasmin.
The target in a further experiment is Prothrombin (Homo sapiens, UniProt P00734). The experiment in a line: Binding affinity against thrombin.
Experiment [2] has as its target Tissue-type plasminogen activator (Homo sapiens, UniProt P00750). Put plainly: Binding affinity towards tissue type plasminogen activator.
Another experiment concerns the target Serine protease 1 (Homo sapiens, UniProt P07477). The experiment in a line: Binding affinity against trypsin.
A short description of experiment [3]: Binding affinity against trypsin.

pKi: −log10 of the molar value. Bounds are passed on as bounds.

Tissue-type plasminogen activator, sequence (P00750 whole entry): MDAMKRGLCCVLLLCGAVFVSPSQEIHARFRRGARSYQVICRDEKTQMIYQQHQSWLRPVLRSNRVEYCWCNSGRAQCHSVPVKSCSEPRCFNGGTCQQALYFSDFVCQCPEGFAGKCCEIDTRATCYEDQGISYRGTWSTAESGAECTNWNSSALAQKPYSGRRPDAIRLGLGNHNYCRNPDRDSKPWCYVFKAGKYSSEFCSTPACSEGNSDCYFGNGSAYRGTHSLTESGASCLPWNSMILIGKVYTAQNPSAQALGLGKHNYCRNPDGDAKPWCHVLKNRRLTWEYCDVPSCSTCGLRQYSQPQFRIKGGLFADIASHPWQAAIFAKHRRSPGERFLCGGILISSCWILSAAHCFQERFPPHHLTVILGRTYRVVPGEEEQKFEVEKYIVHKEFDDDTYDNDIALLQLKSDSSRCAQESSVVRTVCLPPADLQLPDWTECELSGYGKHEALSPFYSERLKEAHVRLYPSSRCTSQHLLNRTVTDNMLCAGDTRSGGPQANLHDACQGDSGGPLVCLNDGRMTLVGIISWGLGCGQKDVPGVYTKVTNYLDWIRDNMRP
Serine protease 1, sequence (P07477 whole entry): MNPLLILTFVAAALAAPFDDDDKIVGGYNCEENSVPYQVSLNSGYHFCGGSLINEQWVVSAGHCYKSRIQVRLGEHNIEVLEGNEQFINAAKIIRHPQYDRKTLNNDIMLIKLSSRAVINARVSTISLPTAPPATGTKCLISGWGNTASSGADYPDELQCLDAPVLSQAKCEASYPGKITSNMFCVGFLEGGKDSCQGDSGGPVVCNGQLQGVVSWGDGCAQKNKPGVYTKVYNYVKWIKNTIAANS
Plasminogen, sequence (P00747 97-580 limits assumed): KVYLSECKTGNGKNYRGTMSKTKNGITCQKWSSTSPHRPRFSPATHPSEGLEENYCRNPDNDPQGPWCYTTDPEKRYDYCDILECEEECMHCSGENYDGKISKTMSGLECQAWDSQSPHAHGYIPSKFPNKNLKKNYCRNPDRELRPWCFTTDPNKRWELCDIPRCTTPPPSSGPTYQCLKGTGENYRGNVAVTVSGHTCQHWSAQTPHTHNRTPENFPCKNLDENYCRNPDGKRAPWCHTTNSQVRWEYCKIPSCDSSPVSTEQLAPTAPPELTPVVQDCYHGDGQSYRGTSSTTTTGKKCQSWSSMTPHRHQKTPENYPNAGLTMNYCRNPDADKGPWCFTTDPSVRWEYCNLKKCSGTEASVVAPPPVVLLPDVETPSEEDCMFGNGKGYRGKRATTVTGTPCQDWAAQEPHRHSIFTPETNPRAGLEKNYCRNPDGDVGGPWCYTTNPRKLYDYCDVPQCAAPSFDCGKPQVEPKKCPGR
Plasminogen, sequence (P00747 581-810 limits assumed): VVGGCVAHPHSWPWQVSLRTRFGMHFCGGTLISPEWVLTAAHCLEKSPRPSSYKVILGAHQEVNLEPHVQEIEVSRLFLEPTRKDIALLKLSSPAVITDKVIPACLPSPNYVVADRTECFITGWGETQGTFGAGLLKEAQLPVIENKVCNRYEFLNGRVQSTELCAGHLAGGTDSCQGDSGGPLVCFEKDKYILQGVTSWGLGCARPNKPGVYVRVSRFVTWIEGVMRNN

On to `COc1ccc2ccc(C(=N)N)cc2c1-c1cnn(C)c1`, for which the pKi in experiment [1] is 5.34.

`N=C(N)c1ccc2cccc(Nc3ncccn3)c2c1`: the pKi at Plasminogen is 5.42; at Prothrombin, 5.49; in experiment [2] it was 4.62; at Serine protease 1 it was 5.77.

Take `N=C(N)c1ccc2cc(C(=O)Nc3ccc(CN)cc3)cc(Nc3ncccn3)c2c1`: the pKi on Plasminogen is 6.82; at Prothrombin, 6.03; in experiment [2], 6.17; at Serine protease 1, 7.70.

Turning to `CCSc1cc(-c2cc(C(=O)Nc3ccccc3)cc3ccc(C(=N)N)cc23)co1`, the pKi on Plasminogen is 7.28; on Prothrombin it was 6.92; in experiment [2] it was 5.48; at Serine protease 1, 7.96; in experiment [1], 7.40.

As for `[H]/N=C(/N)c1ccc2cc(C(=O)Nc3ccccc3)cc(Nc3ncccn3)c2c1`, the pKi at Plasminogen was 7.05; on Prothrombin it was 6.77; in experiment [2], 6.09; on Serine protease 1 it was 7.40; in experiment [1], 8.70.

Turning to `COc1ccc2ccc(C(=N)N)cc2c1-c1ccoc1`, the pKi was 5.03 at Plasminogen, 5.89 at Prothrombin, 4.74 in experiment [2] and 5.92 on Serine protease 1.

Turning to `N=C(N)c1ccc2cc(C(=O)Nc3ccccc3)ccc2c1`, the pKi in experiment [3] was 6.48.

Take `N=C(N)c1ccc2ccccc2c1`: the values for the pKi in experiment [2] and in experiment [3] were below 4.00 and 5.11, respectively.

With `N=C(N)c1ccc2cc(C(=O)Nc3ccccc3)cc(C3CCOC3)c2c1` (stereo unspecified), the pKi was 6.40 at Plasminogen; 6.44 on Prothrombin; 6.06 in experiment [2]; 7.52 at Serine protease 1; 6.97 in experiment [1].

In the case of `N=C(N)c1ccc2cc(C(=O)Nc3ccccc3)cc(-c3ccoc3)c2c1`, the pKi was 6.49 at Plasminogen; 6.89 at Prothrombin; 6.74 in experiment [2]; 7.35 at Serine protease 1; 7.04 in experiment [1].

On to `N=C(N)c1ccc2cccc(N)c2c1`, for which the pKi on Plasminogen is 5.18; on Prothrombin, 5.28; in experiment [2], 4.57; on Serine protease 1, 6.70.

Regarding `CCS(=O)(=O)c1cc(-c2cc(C(=O)Nc3cccc(OC4CCCC4)c3)cc3ccc(C(=N)N)cc23)co1`, the negative-log Ki (pKi) on Plasminogen is 7.42; at Prothrombin, 6.21; in experiment [2], 5.80; at Serine protease 1, 8.52; in experiment [1], 8.68.

Turning to `COc1ccc2ccc(C(=N)N)cc2c1C1CCOC1` (stereo unspecified), the pKi at Plasminogen was 5.22; on Prothrombin, 6.35; in experiment [2] it was 5.13; on Serine protease 1, 6.49.

Turning to `CCS(=O)(=O)c1cc(-c2cc(C(=O)Nc3ccccc3)cc3ccc(C(=N)N)cc23)co1`, the negative-log Ki (pKi) on Plasminogen is 7.25; on Prothrombin, 6.54; in experiment [2] it was 5.08; on Serine protease 1 it was 8.46.

`COc1ccc2ccc(C(=N)N)cc2c1-c1cnn(S(C)(=O)=O)c1`: the pKi is 5.07 on Plasminogen, 5.15 on Prothrombin, below 4.00 in experiment [2] and 5.57 at Serine protease 1.

Take `CC(C)Oc1cccc(NC(=O)c2cc(C3CCOC3)c3cc(C(=N)N)ccc3c2)c1` (stereo unspecified): the pKi on Plasminogen was 6.72; at Prothrombin it was 5.96; in experiment [2] it was 6.89; at Serine protease 1, 7.92.
